# Laboratory results as given in US12636272B2, “Method and composition for inhibiting virus infection” (ARJIL BIOTECH HOLDING COMPANY LIMITED, priority 2020, dated 2026).
# Several values for one entry are separate records, joined by “and”; a condition that tells them apart may be missing. Identical values can stand only once.
# Assays:
# [1] = test system: HBV; assay: HBsAg secretion of HepG2.2.15 cells (ELISA); format: cell-based, Hepatitis B virus (HBV)
# From the text: (§1) Continuous HBV proliferation can be achieved in HepG2.2.15 cells (RRID:CVCL_L855) stably transfected with the HBV genome of the adw2 subtype. HepG2.2.15 cells are used because of the unlimited supply and constant quality and were maintained in Dulbecco's modified Eagle medium (DMEM; Invitrogen) supplemented with 10% heat-inactivated fetal bovine serum (FBS; Thermo) plus 100 units of penicillin and […] of streptomycin per ml (both from Invitrogen).
# (§2) To test whether AR100-DS1 had any effect on HBV genome replication, assembly, or secretion, HepG2.2.15 cells that were stably transfected with HBV genome, were used to incubate with AR 100-DS1 for 48 hours, then HBsAg and HBV DNA collected from medium were measured by ELISA and real-time PCR.
# [2] = test system: HBV; assay: HBV DNA level in the culture medium of HepG2.2.15 cells (real-time PCR); format: cell-based, Hepatitis B virus (HBV)
# From the text: as §1
# The culture medium from drug-treated HepG2.2.15 cells is clarified by centrifugation at 1,000× g at 4° C. for 10 min, and then the supernatant is layered on top of a 20% sucrose cushion (20% sucrose, 20 mM HEPES, pH 7:4, 0.1% bovine serum albumin [BSA]) and centrifuged at 197,000× g for 3 h at 4° C. to pellet the HBV particles, which are then concentrated 100 fold to detect HBV DNA.
# Total DNA is extracted with a Genomic DNA isolation kit (Nexttee Biotechnologie, Germany). Total RNA is isolated from cultured cells using TRIzol® reagent (Invitrogen). […] The results are analyzed with the iCycler iQ real-time PCR detection system (Bio-Rad). […]
# as §2
# [3] = test system: HBV; assay: HBV infectivity/entry in HuS-E/2 cells (HBsAg ELISA, HBV mRNA real-time PCR); format: cell-based, Hepatitis B virus (HBV)
# [4] = test system: HuS-E/2 cells; assay: Cell viability of HuS-E/2 cells (MTT assay); format: cell-based; conditions: 0-1000 μg/ml AR100-DS1 for 48 h
# [5] = test system: HepG2.2.15 cells; assay: Cell viability of HepG2.2.15 cells; format: cell-based
# [6] = test system: SARS-COV-2 (NTU13); assay: Plaque reduction assay in Vero E6 cells; format: cell-based; conditions: 1 μM RDV*
# [7] = HuS-E/2 cells, 0, 5 and 10 of AR100-DS1 during infection for 18 h, then 48 hours
Compound,"secretion of HBsAg ([1]; 0, 20 and 40 μg/ml AR100-DS1, HepG2.2.15 cells (FIG. 1C))","secretion of HBsAg reduced to ([1]; 10 μg/ml AR100-DS1, 48 hours, HepG2.2.15 cells)","secretion of HBsAg reduced to ([1]; 20 μg/ml AR100-DS1, 48 hours, HepG2.2.15 cells (FIGS. 1A and 1B))","secretion of HBsAg reduced to ([1]; 50 μg/ml AR100-DS1, 48 hours, HepG2.2.15 cells)","HBV DNA level in medium ([2]; 20 μg/ml AR100-DS1, 48 hours)","HBV DNA level in medium ([2]; 40 μg/ml AR100-DS1, 48 hours)",entry of HBV in HuS-E/2 cells ([3]; HuS-E/2 cells),"HBV mRNA expression level [3, 7]","secretion of HBsAg in the medium [3, 7]",cell viability [4],cell viability [5],Inhibition (%) to DMSO mean [6],Inhibition (%) to virus mean [6],Plaque number per well mean [6]
C=C1C(=O)O[C@H]2/C=C(\C)CC3C=C(CC/C=C(\C)CC[C@H]12)C(=O)O3 (some centres unmarked) [AR100-DS1],significantly inhibited,75.25%,69.77% and 63.00%,56.78%,significantly reduced,significantly reduced,could not prevent HBV entering into HuS-E/2 cells,neither secretion of HBsAg in the medium nor HBV mRNA expression level showed dose-dependent reduction,neither secretion of HBsAg in the medium nor HBV mRNA expression level showed dose-dependent reduction,marked dose-dependent reduction in cell viability,marked dose-dependent reduction in cell viability,,,
"CCC(CC)COC(=O)[C@H](C)N[P@](=O)(OC[C@H]1O[C@@](C#N)(c2ccc3c(N)ncnn23)[C@H](O)[C@@H]1O)Oc1ccccc1 [RDV, remdesivir]",,,,,,,,,,,,80%,82%,32
